Here are results for twelve compounds from PMC9414913, “Tyrosinase Inhibitors Derived from Chemical Constituents of Dianella ensifolia” (Plants, 2022).

The target in the first assay is mushroom tyrosinase (Agaricus bisporus, UniProt C7FF04). As to the kind of experiment: In vitro mushroom tyrosinase inhibition assay. The class given is biochemical. As to conditions: compared with arbutin (positive control). As for the experimental part: The mushroom tyrosinase inhibitory assay has been described in detail previously. Briefly, various concentrations of test compounds (100 μL) and 2 mM L-tyrosine (80 μL, Sigma-Aldrich, St. Louis, MO, USA) were mixed in 96-well plates. 20 μL of mushroom tyrosinase (1000 U/mL, Sigma-Aldrich, USA) was added to initiate the assay. The absorbance of the mixture was measured at 490 nm using a microplate reader (μQuant™, BioTek Winooski, VT, USA).
Sequence of mushroom tyrosinase (G1K3P4 entry or part of it): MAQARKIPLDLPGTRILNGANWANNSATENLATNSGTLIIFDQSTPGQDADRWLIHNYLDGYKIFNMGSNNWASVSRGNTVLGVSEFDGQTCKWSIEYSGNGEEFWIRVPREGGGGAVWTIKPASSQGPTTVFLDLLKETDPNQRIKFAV
Sequence of mushroom tyrosinase (C7FF04 2-392): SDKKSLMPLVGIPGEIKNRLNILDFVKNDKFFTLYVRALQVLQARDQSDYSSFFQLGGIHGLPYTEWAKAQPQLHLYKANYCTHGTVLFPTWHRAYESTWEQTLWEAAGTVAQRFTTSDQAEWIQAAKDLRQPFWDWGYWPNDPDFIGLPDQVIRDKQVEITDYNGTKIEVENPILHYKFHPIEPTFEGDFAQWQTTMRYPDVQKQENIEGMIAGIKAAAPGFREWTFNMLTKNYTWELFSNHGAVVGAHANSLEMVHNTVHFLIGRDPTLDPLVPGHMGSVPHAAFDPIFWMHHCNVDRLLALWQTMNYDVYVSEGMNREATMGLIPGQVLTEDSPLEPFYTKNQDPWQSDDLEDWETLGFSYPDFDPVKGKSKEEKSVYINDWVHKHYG
As to `COc1ccc2c(c1C)O[C@H](c1cc(O)c(OC)c(O)c1)CC2` [Compound 12, (2S)-3’,5’-dihydroxy-7,4’-dimethoxy-8-methylflavan], the “mushroom tyrosinase inhibitory effect, in words” value is “moderate or weak activity”. The same measure, in the same setting: the entry for `Oc1ccc([C@@H]2CCc3ccc(O)cc3O2)cc1` [Compound 8, (2S)-7,4’-dihydroxyflavan] is “moderate or weak activity”.

For the compound `COc1ccc([C@@H]2CCc3cc(OC)c(O)cc3O2)cc1O` [Compound 13, (2S)-7,3′-dihydroxy-6,4’-dimethoxyflavan], the “mushroom tyrosinase inhibitory effect, in words” value is listed as “moderate or weak activity”. In the case of `Cc1c(O)ccc2c1O[C@H](c1ccc(O)cc1)CC2` [Compound 10, (2S)-7,4’-dihydroxy-8-methylflavan], the “mushroom tyrosinase inhibitory effect, in words” value is “moderate or weak activity”. `O=c1cc(-c2ccc(O)c(O)c2)oc2cc(O)cc(O)c12` [Compound 20, luteolin]: the “mushroom tyrosinase inhibitory effect, in words” value was “more substantial inhibitory effect against mushroom tyrosinase than arbutin”.

`CC(=O)c1c(C)cc2c(c1O)C(=O)CCC2O` (stereo not shown) [Compound 41, 7-acetyl-4,8-dihydroxy-6-methyl-1-tetralone]: the “mushroom tyrosinase inhibitory effect, in words” value is reported as “moderate or weak activity”. With `COc1ccc2c(c1C)O[C@H](c1ccc(O)c(O)c1)CC2` [Compound 2, (2S)-3’,4’-dihydroxy-7-methoxy-8-methylflavan], the “mushroom tyrosinase inhibitory effect, in words” value was “more substantial inhibitory effect against mushroom tyrosinase than arbutin”. Turning to `COc1cc2c(cc1OC)O[C@H](c1ccc(O)cc1)CC2` [Compound 1, (2S)-4’-hydroxy-6,7-dimethoxyflavan], the “mushroom tyrosinase inhibitory effect, in words” value is reported as “moderate or weak activity”. Regarding `O=c1cc(-c2ccc(O)cc2)oc2cc(O)cc(O)c12` [Compound 21, apigenin], the “mushroom tyrosinase inhibitory effect, in words” value is “more substantial inhibitory effect against mushroom tyrosinase than arbutin”. Same read-out and setting: under `O=C1C[C@@H](c2ccc(O)cc2)Oc2cc(O)ccc21` [Compound 15, (2S)-liquiritigenin] stands “more substantial inhibitory effect against mushroom tyrosinase than arbutin”. Same read-out and setting: the entry for `COc1ccc2c(c1C)OC(C1(O)C=CC(=O)CC1)CC2` [Compound 4, (2S,1′S)-4-hydroxy-4-(7-methoxy-8-methylchroman-2-yl)-cyclohex-2-enone] is “moderate or weak activity”; for `COc1ccc2c(c1)O[C@H](c1ccccc1O)CC2` [Compound 3, (2S)-2’-hydroxy-7-methoxyflavan] it is “moderate or weak activity”.

Still in this assay, the particulars now being: substrate 2 mM L-tyrosine; absorbance at 490 nm; read-out: IC50 (mushroom tyrosinase inhibitory effect).
Consider `O=C1C[C@@H](c2ccc(O)cc2)Oc2cc(O)ccc21` [Compound 15, (2S)-liquiritigenin], for which the IC50 (in general, the concentration that gives 50% inhibition) turned out to be 109 ± 6.2 µM.
